According to patent publication US5783574A, “Imidazolylakyl derivatives of imidazo [5,1-c][1,4]benzoxazin-1-one process for their preparation” (Pharmacia & Upjohn S.p.A., priority 1994, dated 1998):
Structures can show the parent of a compound that is named as a salt.

Tests used:
[1] = target: T1, 5-HT3 binding sites in rat brain cortical membranes (Rattus norvegicus, UniProt P35563); assay: inhibition of 3H-BRL 43694 (Granisetron) binding in rat entorhinal cortex membranes; conditions: read-out: 5-HT3 binding affinity, 3H-BRL 43694 IC50
T1 construct: from tissue; host or cells: rat entorhinal cortex membranes
T1 sequence (P35563 24-483): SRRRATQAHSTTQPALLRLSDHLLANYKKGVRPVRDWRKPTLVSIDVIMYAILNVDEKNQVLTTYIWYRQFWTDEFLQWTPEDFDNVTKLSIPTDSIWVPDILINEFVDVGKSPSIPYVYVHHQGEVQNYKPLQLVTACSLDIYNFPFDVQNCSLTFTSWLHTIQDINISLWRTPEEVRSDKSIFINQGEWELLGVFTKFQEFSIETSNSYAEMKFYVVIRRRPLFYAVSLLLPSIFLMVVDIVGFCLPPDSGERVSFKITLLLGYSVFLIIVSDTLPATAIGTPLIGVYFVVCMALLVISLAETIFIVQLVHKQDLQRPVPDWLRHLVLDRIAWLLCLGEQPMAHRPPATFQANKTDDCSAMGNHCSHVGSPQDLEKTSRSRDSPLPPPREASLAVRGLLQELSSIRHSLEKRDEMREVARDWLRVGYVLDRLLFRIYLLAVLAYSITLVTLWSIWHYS
Text: [^3 H]-BRL 43694 (Granisetron) is a specific ligand for 5-HT3 binding sites in rat brain cortical membranes: Biochem. Pharmac. 38, 1693-1695, 1989.
The following Table II summarizes the activity data obtained in this in-vitro test for two representative compounds of the invention in comparison with compound A, i.e. a close chemically related compound falling within U.S. Pat. No. 4,134,974.
5-HT3 binding affinity for rat entorhinal

5HT3 receptor = target: T2, 5HT3 receptor (Rattus norvegicus, UniProt P35563); assay: inhibition of the von Bezold-Jarisch reflex (chemoreflex) evoked by 5-HT in the anesthetised rat; assay type: in vivo; conditions: anesthetized rat, 5-HT 30 μg/kg i.v.; for % inhibition of the von Bezold-Jarisch reflex elicited by 5-HT: compound 100 μg/kg i.v., N=6, mean; for ED50: iv, limits printed on the line below
T2 construct: evoked by 5-HT in the anesthetised rat; from tissue; host or cells: whole anaesthetised rat (by own knowledge: cardiopulmonary vagal afferents)
T2 sequence (P35563 24-483): T1 sequence (P35563 24-483)
Experimental: Pharmacol. 326, 36-44 (1984).
Inhibition of the von Bezold-Jarisch reflex
elicited by 5-HT (30 μg/kg i.v.) by FCE
compounds in the anesthetized rat. Values are
mean ± in S.E.M. from N animals

IC50 [1] [µM] | % inhibition of the von Bezold-Jarisch reflex elicited by 5-HT (5HT3 receptor) [%] | ED50 (5HT3 receptor) [mg/kg] | Structure (SMILES)
1.21 |  |  | Cc1nccn1CCN1CC2COc3ccccc3N2C1=O (stereo not shown) [Compound A, 2,3,3a,4tetrahydro-2-[2(2-methyl-imidazol-1-yl)ethyl1H-imidazo[5,1c][1,4]enzoxazin1-one hydrochloride, reference compound]
0.076 | 82 | 0.0236 | Cc1[nH]cnc1CN1CC2COc3ccccc3N2C1=O (stereo not shown) [FCE 28158, 2,3,3a,4-tetrahydro-2-(5-methyl-1H-imidazol-4-yl)methyl-1H-imidazo[5,1-c][1,4]benzoxazin-1-one]
0.006 | 97.5 | 0.00818 | Cc1[nH]cnc1CN1CC2COc3ccc(Cl)cc3N2C1=O (stereo not shown) [FCE 28609, 2,3,3a,4-tetrahydro-8-chloro-2-(5-methyl-1H-imidazol-4-yl)methyl-1H-imidazo[5,1-c][1,4]benzoxazin-1-one]
